{"source": "patent US20240050432A1", "about": "(Infinity Pharmaceuticals, Inc., priority 2020, published 2024)", "assay_type_in_all_cases": "in vivo, human", "key": {"[1]": {"assay": "Hepatic TEAEs by eganelisib dose in combination with nivolumab (phase 1 Part C, phase 2)"}, "[2]": {"assay": "Eganelisib exposures (Cmax, AUC0-24 hrs) with combination therapies, 3 clinical studies", "conditions": "for observed highest individual concentration value: PK cutoff June-July 2020; for Cmax / AUC(0-t): human, in vivo"}, "[3]": {"system": "PD-L1", "assay": "Paired tumor biopsies in TNBC phase II study: PD-L1 expression", "conditions": "11 paired tumor biopsies; triplet regimen"}, "[4]": {"conditions": "30 mg QD, C1D1, model-predicted"}, "[5]": {"conditions": "30 mg QD, C2D1, model-predicted"}, "[6]": {"conditions": "40 mg QD, C1D1, model-predicted"}, "[7]": {"conditions": "40 mg QD, C2D1, model-predicted"}}, "note": "Like-named read-outs stand apart in the source and are kept apart here.", "data": [{"molecule": "C[C@H](NC(=O)c1c(N)nn2cccnc12)c1cc2cccc(C#Cc3cnn(C)c3)c2c(=O)n1-c1ccccc1", "note": "[Compound 1, eganelisib]", "values": [{"measurement": "subjects with Grade 3 hepatic TEAE", "setting": "[1]; eganelisib 30 mg QD with nivolumab 480 mg Q4W", "result": "< 20", "unit": "%"}, {"measurement": "subjects with Hepatic TEAEs", "setting": "[1]; eganelisib 40 mg QD with nivolumab 480 mg Q4W", "result": "> 20", "unit": "%"}, {"measurement": "Cmax, Max", "setting": "[2]; [4]", "result": 1750, "unit": "ng/mL"}, {"measurement": "Cmax, Min", "setting": "[2]; [4]", "result": 637, "unit": "ng/mL"}, {"measurement": "Cmax, Max", "setting": "[2]; [5]", "result": 4070, "unit": "ng/mL"}, {"measurement": "Cmax, Min", "setting": "[2]; [5]", "result": 684, "unit": "ng/mL"}, {"measurement": "observed highest individual concentration value", "setting": "[2]; 30 mg QD, across all 3 studies", "result": 4.42, "unit": "µg/mL"}, {"measurement": "Cmax, Max", "setting": "[2]; [6]", "result": 3630, "unit": "ng/mL"}, {"measurement": "Cmax, Min", "setting": "[2]; [6]", "result": 346, "unit": "ng/mL"}, {"measurement": "Cmax, Max", "setting": "[2]; [7]", "result": 8830, "unit": "ng/mL"}, {"measurement": "Cmax, Min", "setting": "[2]; [7]", "result": 480, "unit": "ng/mL"}, {"measurement": "observed highest individual concentration value", "setting": "[2]; 40 mg QD, across all 3 studies", "result": 11.4, "unit": "µg/mL"}, {"measurement": "observed highest individual concentration lower for 30 mg QD versus 40 mg QD", "setting": "[2]; across all 3 studies", "result": 61, "unit": "%"}, {"measurement": "Cmax", "setting": "[2]; 30 mg QD, C1D1, model-predicted, read-out: Cmax, Mean", "result": 1020, "unit": "ng/mL"}, {"measurement": "Cmax", "setting": "[2]; 30 mg QD, C1D1, model-predicted, read-out: Cmax, Median", "result": 978, "unit": "ng/mL"}, {"measurement": "AUC(0-t)", "setting": "[2]; 30 mg QD, C2D1, model-predicted, read-out: AUC0-24 hrs, GeoMean", "result": 29200, "unit": "ng·h/mL"}, {"measurement": "AUC(0-t)", "setting": "[2]; 30 mg QD, C2D1, model-predicted, read-out: AUC0-24 hrs, Mean", "result": 33600, "unit": "ng·h/mL"}, {"measurement": "AUC(0-t)", "setting": "[2]; 30 mg QD, C2D1, model-predicted, read-out: AUC0-24 hrs, Median", "result": 25800, "unit": "ng·h/mL"}, {"measurement": "Cmax", "setting": "[2]; 30 mg QD, C2D1, model-predicted, read-out: Cmax, GeoMean", "result": 1680, "unit": "ng/mL"}, {"measurement": "Cmax", "setting": "[2]; 30 mg QD, C2D1, model-predicted, read-out: Cmax, Median", "result": 1530, "unit": "ng/mL"}, {"measurement": "AUC(0-t)", "setting": "[2]; 40 mg, 40 mg QD, C1D1, model-predicted, read-out: AUC0-24 hrs, GeoMean", "result": 26200, "unit": "ng·h/mL"}, {"measurement": "AUC(0-t)", "setting": "[2]; 40 mg, 40 mg QD, C1D1, model-predicted, read-out: AUC0-24 hrs, Mean", "result": 28400, "unit": "ng·h/mL"}, {"measurement": "AUC(0-t)", "setting": "[2]; 40 mg, 40 mg QD, C1D1, model-predicted, read-out: AUC0-24 hrs, Median", "result": 26000, "unit": "ng·h/mL"}, {"measurement": "Cmax", "setting": "[2]; 40 mg, 40 mg QD, C1D1, model-predicted, read-out: Cmax, GeoMean", "result": 1550, "unit": "ng/mL"}, {"measurement": "Cmax", "setting": "[2]; 40 mg, 40 mg QD, C1D1, model-predicted, read-out: Cmax, Mean", "result": 1650, "unit": "ng/mL"}, {"measurement": "Cmax", "setting": "[2]; 40 mg, 40 mg QD, C1D1, model-predicted, read-out: Cmax, Median", "result": 1560, "unit": "ng/mL"}, {"measurement": "AUC(0-t)", "setting": "[2]; 40 mg, 40 mg QD, C2D1, model-predicted, read-out: AUC0-24 hrs, GeoMean", "result": 42100, "unit": "ng·h/mL"}, {"measurement": "AUC(0-t)", "setting": "[2]; 40 mg, 40 mg QD, C2D1, model-predicted, read-out: AUC0-24 hrs, Mean", "result": 49600, "unit": "ng·h/mL"}, {"measurement": "AUC(0-t)", "setting": "[2]; 40 mg, 40 mg QD, C2D1, model-predicted, read-out: AUC0-24 hrs, Median", "result": 41400, "unit": "ng·h/mL"}, {"measurement": "Cmax", "setting": "[2]; 40 mg, 40 mg QD, C2D1, model-predicted, read-out: Cmax, GeoMean", "result": 2470, "unit": "ng/mL"}, {"measurement": "Cmax", "setting": "[2]; 40 mg, 40 mg QD, C2D1, model-predicted, read-out: Cmax, Mean", "result": 2770, "unit": "ng/mL"}, {"measurement": "Cmax", "setting": "[2]; 40 mg, 40 mg QD, C2D1, model-predicted, read-out: Cmax, Median", "result": 2420, "unit": "ng/mL"}, {"measurement": "AUC(0-t)", "setting": "[2]; oral, 30 mg QD, C1D1, model-predicted, read-out: AUC0-24 hrs, GeoMean", "result": 16100, "unit": "ng·h/mL"}, {"measurement": "AUC(0-t)", "setting": "[2]; oral, 30 mg QD, C1D1, model-predicted, read-out: AUC0-24 hrs, Mean", "result": 16700, "unit": "ng·h/mL"}, {"measurement": "AUC(0-t)", "setting": "[2]; oral, 30 mg QD, C1D1, model-predicted, read-out: AUC0-24 hrs, Median", "result": 15900, "unit": "ng·h/mL"}, {"measurement": "Cmax", "setting": "[2]; oral, 30 mg QD, C1D1, model-predicted, read-out: Cmax, GeoMean", "result": 993, "unit": "ng/mL"}, {"measurement": "Cmax", "setting": "[2]; oral, 30 mg QD, C2D1, model-predicted, read-out: Cmax, Mean", "result": 1860, "unit": "ng/mL"}, {"measurement": "change of PD-L1 status/expression in paired tumor biopsies", "setting": "[3]", "result": "on-mechanism conversion of patients from PD-L1(−) to PD-L1(+) and increase in PD-L1 expression in PD-L1(+) patients"}]}]}
